Source: patent publication US9040530B2, “1,2,4-triazine-6-carboxamide kinase inhibitors” (Portola Pharmaceuticals, Inc., priority 2012, dated 2015)

biological target: T1, full length active recombinant SYK enzyme (Homo sapiens, UniProt P43405); experiment: Inhibition of Syk tyrosine phosphorylation activity (LANCE TR-FRET kinase assay); type: biochemical; details: 1 nM active SYK enzyme, 550 nM SYK-substrate, 100 μM ATP, 1 hour at room temperature
T1 construct: full length active recombinant SYK enzyme (Millipore, Calif.); purchased Millipore

NC(=O)c1nnc(N[C@@H]2CCCC[C@@H]2N)nc1Nc1ccc(C(=O)N2CCC2)nc1 [Example 66, 3-(((1R,2S)-2-aminocyclohexyl)amino)-5-((6-(azetidine-1-carbonyl)pyridin-3-yl)amino)-1,2,4-triazine-6-carboxamide] and Cc1cc(Nc2nc(N[C@@H]3CCCC[C@@H]3N)nnc2C(N)=O)ccc1C(=O)N1CCC1 [Example 64, 3-(((1R,2S)-2-aminocyclohexyl)amino)-5-((4-(azetidine-1-carbonyl)-3-methylphenyl)amino)-1,2,4-triazine-6-carboxamide] fall in the same range of IC50: 10 to 100 nM for the first, 10 to 100 nM for the second.

Compared with NC(=O)c1nnc(N[C@@H]2CCCC[C@@H]2N)nc1Nc1ccc(F)c(F)c1 [Example 18, 3-(((1R,2S)-2-aminocyclohexyl)amino)-5-((3,4-difluorophenyl)amino)-1,2,4-triazine-6-carboxamide], NC(=O)c1nnc(N[C@@H]2CCCC[C@@H]2N)nc1Nc1ccc(Cl)cc1 [Example 27, 3-(((1R,2S)-2-aminocyclohexyl)amino)-5-((4-chlorophenyl)amino)-1,2,4-triazine-6-carboxamide] is lower in IC50: 10 to 100 nM for the first, 1 to 10 nM for the second. The second is the more potent here.

First: NC(=O)c1nnc(N[C@@H]2CCCC[C@@H]2N)nc1Nc1cc(Cl)c2ncccc2c1 [Example 176, 3-(((1R,2S)-2-aminocyclohexyl)amino)-5-((8-chloroquinolin-6-yl)amino)-1,2,4-triazine-6-carboxamide]
Second: NC(=O)c1nnc(N[C@@H]2CCCC[C@@H]2N)nc1Nc1cc(F)cc(Cl)c1 [Example 21, 3-(((1R,2S)-2-aminocyclohexyl)amino)-5-((3-chloro-5-fluorophenyl)amino)-1,2,4-triazine-6-carboxamide]
The IC50 of the first is lower: under 1 nM for the first, 1 to 10 nM for the second. The first is the more potent here.

CN(C)c1ccc(Nc2nc(N[C@@H]3CCCC[C@@H]3N)nnc2C(N)=O)cc1Cl [Example 175, 3-(((1R,2S)-2-aminocyclohexyl)amino)-5-((3-chloro-4-(dimethylamino)phenyl)amino)-1,2,4-triazine-6-carboxamide] and Cn1ccc2cc(Nc3nc(N[C@@H]4CCCC[C@@H]4N)nnc3C(N)=O)ccc21 [Example 118, 3-(((1R,2S)-2-aminocyclohexyl)amino)-5-((1-methyl-1H-indol-5-yl)amino)-1,2,4-triazine-6-carboxamide] fall in the same range of IC50: 1 to 10 nM for the first, 1 to 10 nM for the second.

COc1cc(Nc2nc(N[C@@H]3CCCC[C@@H]3N)nnc2C(N)=O)ccn1 [Example 68, 3-(((1R,2S)-2-aminocyclohexyl)amino)-5-((2-methoxypyridin-4-yl)amino)-1,2,4-triazine-6-carboxamide] and Cn1ncc2cc(Nc3nc(N[C@@H]4CCCC[C@@H]4N)nnc3C(N)=O)ccc21 [Example 109, 3-(((1R,2S)-2-aminocyclohexyl)amino)-5-((1-methyl-1H-indazol-5-yl)amino)-1,2,4-triazine-6-carboxamide] fall in the same range of IC50: 1 to 10 nM for the first, 1 to 10 nM for the second.

First: NC(=O)c1nnc(N[C@@H]2CCCC[C@@H]2N)nc1Nc1cncc(F)c1 [Example 14, 3-(((1R,2S)-2-aminocyclohexyl)amino)-5-((5-fluoropyridin-3-yl)amino)-1,2,4-triazine-6-carboxamide]
Second: NC(=O)c1nnc(N[C@@H]2CCCC[C@@H]2N)nc1Nc1ccc2cn[nH]c2c1 [Example 126, 5-((1H-indazol-6-yl)amino)-3-(((1R,2S)-2-aminocyclohexyl)amino)-1,2,4-triazine-6-carboxamide]
The IC50 of the first is higher: 100 to 1000 nM for the first, under 1 nM for the second.

CC[C@@H](Nc1nnc(C(N)=O)c(Nc2ccc(C)c(F)c2)n1)C(N)=O [Example 196, (R)-3-((1-amino-1-oxobutan-2-yl)amino)-5-((3-fluoro-4-methylphenyl)amino)-1,2,4-triazine-6-carboxamide] and CC[C@@H](Nc1nnc(C(N)=O)c(Nc2ccc3ccn(C)c3c2)n1)C(N)=O [Example 163, (R)-3-((1-amino-1-oxobutan-2-yl)amino)-5-((1-methyl-1H-indol-6-yl)amino)-1,2,4-triazine-6-carboxamide] fall in the same range of IC50: 10 to 100 nM for the first, 10 to 100 nM for the second.

NC(=O)c1nnc(N[C@@H]2CCCC(F)(F)[C@@H]2N)nc1Nc1ccc(C(F)(F)F)cc1 [Example 239, 3-(((1R,2R)-2-amino-3,3-difluorocyclohexyl)amino)-5-((4-(trifluoromethyl)phenyl)amino)-1,2,4-triazine-6-carboxamide] and Cc1cc(Nc2nc(N[C@@H]3CCCC(F)(F)[C@@H]3N)nnc2C(N)=O)ccc1Cl [Example 218, 3-(((1R,2R)-2-amino-3,3-difluorocyclohexyl)amino)-5-((4-chloro-3-methylphenyl)amino)-1,2,4-triazine-6-carboxamide] fall in the same range of IC50: 10 to 100 nM for the first, 10 to 100 nM for the second.

First: NC(=O)c1nnc(N[C@@H]2CCNC2)nc1Nc1ccc2ncccc2c1 [Example 57, (R)-3-(pyrrolidin-3-ylamino)-5-(quinolin-6-ylamino)-1,2,4-triazine-6-carboxamide]
Second: CC[C@@H](Nc1nnc(C(N)=O)c(Nc2cnc3ccccc3c2)n1)C(N)=O [Example 59, (R)-3-((1-amino-1-oxobutan-2-yl)amino)-5-(quinolin-3-ylamino)-1,2,4-triazine-6-carboxamide]
The IC50 of the first is lower: 1 to 10 nM for the first, 10 to 100 nM for the second.

CC[C@@H](Nc1nnc(C(N)=O)c(Nc2ccc3c(c2)CCC3)n1)C(N)=O [Example 211, (R)-3-((1-amino-1-oxobutan-2-yl)amino)-5-((2,3-dihydro-1H-inden-5-yl)amino)-1,2,4-triazine-6-carboxamide] and CC[C@@H](Nc1nnc(C(N)=O)c(Nc2ccc3c(c2)COCC3)n1)C(N)=O [Example 227, (R)-3-((1-amino-1-oxobutan-2-yl)amino)-5-(isochroman-7-ylamino)-1,2,4-triazine-6-carboxamide] fall in the same range of IC50: 1 to 10 nM for the first, 1 to 10 nM for the second.

CC[C@@H](Nc1nnc(C(N)=O)c(Nc2cnc3cc(F)ccc3c2)n1)C(N)=O [Example 159, (R)-3-((1-amino-1-oxobutan-2-yl)amino)-5-((7-fluoroquinolin-3-yl)amino)-1,2,4-triazine-6-carboxamide] and CC[C@@H](Nc1nnc(C(N)=O)c(Nc2ccc(-n3nccn3)cc2)n1)C(N)=O [Example 98, (R)-5-((4-(2H-1,2,3-triazol-2-yl)phenyl)amino)-3-((1-amino-1-oxobutan-2-yl)amino)-1,2,4-triazine-6-carboxamide] fall in the same range of IC50: 10 to 100 nM for the first, 10 to 100 nM for the second.

Cn1ccc2c(Nc3nc(N[C@@H]4CCCC[C@@H]4N)nnc3C(N)=O)cccc21 [Example 81, 3-(((1R,2S)-2-aminocyclohexyl)amino)-5-((1-methyl-1H-indol-4-yl)amino)-1,2,4-triazine-6-carboxamide] and NC(=O)c1nnc(N[C@@H]2CCOC[C@@H]2N)nc1Nc1ccc2c(c1)CCC2 [Example 223, 3-(((3R,4R)-3-aminotetrahydro-2H-pyran-4-yl)amino)-5-((2,3-dihydro-1H-inden-5-yl)amino)-1,2,4-triazine-6-carboxamide] fall in the same range of IC50: 1 to 10 nM for the first, 1 to 10 nM for the second.

Cc1cc(Nc2nc(N[C@H](CC3CC3)C(N)=O)nnc2C(N)=O)sn1 [Example 141, (R)-3-((1-amino-3-cyclopropyl-1-oxopropan-2-yl)amino)-5-((3-methylisothiazol-5-yl)amino)-1,2,4-triazine-6-carboxamide] and NC(=O)c1nnc(N[C@@H]2CCOC[C@@H]2N)nc1Nc1ccc(Cl)c(Cl)c1 [Example 244, 3-(((3R,4R)-3-aminotetrahydro-2H-pyran-4-yl)amino)-5-((3,4-dichlorophenyl)amino)-1,2,4-triazine-6-carboxamide] fall in the same range of IC50: 10 to 100 nM for the first, 10 to 100 nM for the second.
